Measurements: patent publication US12404345B2, “Humanized antibodies against iRHOM2” (SCIRHOM GMBH, priority 2021, dated 2025)

System: PMA-induced release of endogenous HB-EGF from human PBMCs from healthy donors
Assay: ELISA-based HB-EGF release assay, PMA-induced, PBMCs from healthy donors
Type: cell-based
Conditions: PBMC, Batimastat 10 μM, PMA 25 ng/ml, 24 hours
Protocol: In the following study, ELISA-based HB-EGF release assays were performed to analyze the inhibitory effects of the antibodies of the invention on PMA-induced release of endogenous HB-EGF from primary human material obtained from healthy donors using peripheral blood mononuclear cells (PBMCs).
In brief, on day 1, Nunc black MaxiSorp® 96-well plates (Thermo Fisher Scientific, USA) were coated overnight with 100 μl per well of mouse anti-human HB-EGF capture antibody (provided as part of the DuoSet ELISA kit) at 2 μg/ml TBS at 4° C. […]
After 4 times washing with 350 μl TBS-T (Carl Roth, Germany) per well on a 96-head plate washer (Tecan Group, Switzerland) and careful removal of all buffer traces after the fourth cycle, 100 μl streptavidin-AP (R&D Systems, USA) diluted 1:10,000 in TBS were added to each well and, again protected from direct light, plates were incubated at room temperature for 30 minutes. […] Using an infinite M1000 (Tecan Group, Switzerland) microplate reader, the fluorescence of each well was collected at an excitation wavelength of 435 nm and an emission wavelength of 555 nm.

SMILES: CNC(=O)[C@H](Cc1ccccc1)NC(=O)[C@H](CC(C)C)[C@H](CSc1cccs1)C(=O)NO [Batimastat]
- inhibition at 10 µM: 100%
